Measured values: patent US7314866B2, “Ku-70-derived Bax-suppressing peptides and use thereof for the protection of damaged cells” (Bloodcenter of Wisconsin, Inc., priority 2002, dated 2008)
“Also recorded” adds a separate entry of the source. Where a SMILES comes first, the peptide text is derived from it. Where no end group is shown, it is not given here. The star is where a group is joined. FITC = O=C1OC2(c3ccc(O)cc3Oc3cc(O)ccc32)c2ccc(NC(=S)*)cc21; Biotin = O=C1N[C@H]2[C@H](CS[C@H]2CCCCC(=O)*)N1; Cbz = O=C(OCc1ccccc1)*; CH2F = FC*

Key:
HEK293T cells = experiment: Bax-induced apoptosis in HEK293T cells (pcDNA3-Bax transfection, Hoechst staining); format: cell-based, human; settings: added to the culture medium
Procedure: FIG. 1 illustrates that new peptides designed from Ku70 show anti-Bax activity. FIG. 1A: scheme of Ku70 full-length (Ku70 wt), Ku701-577 (Ku70Δ578–609), or Ku70578-609 (Ku70Δ1–577). FIG. 1C: HEK293T cells were transfected with 1.0 ug of pCMV-2B-control vector (Control) or pcDNA3-Bax (Bax) together with 2.0 ug of pCMV-2B-Ku70 wt (Ku70 wt), pCMV-2B-Ku701-577 (Ku701-577), or pCMV-2B-Ku70578-609 (Ku70578-609). All the cells were also co-transfected with 0.5 ug pEGFP for the marking of transfected cells. Apoptosis in the transfected cells was analyzed 24 hours following transfection with Hoechst dye staining of the nucleus as described in Methods. FIG. 1D: HEK293T cells were incubated with 200 uM peptide composed of Ku70578-587 or Ku70596-600 for 4 hours using BioPorter reagent, and then transfected with 1.0 ug of pCDNA3-control vector (Control) or pcDNA3-Bax (Bax). The number of apoptotic cells was determined as described in FIG. 1C. FIG. 1E: HEK293T cells (10^6 cells) were incubated with 200 uM IPMIK (negative control peptide) or VPMLK (V5) and PMLKE (P5) peptides at the indicated concentrations for 1 hour and then incubated cells were transfected with 1.0 ug of pcDNA3-Bax. Also, unincubated cells were transfected with 1.0 ug of pcDNA3-Bax in the presence or absence of 200 uM z-VAD-fmk. The number of apoptotic cells was determined as described in FIG. 1C. FIG. 1F: Summary of the anti-Bax activity and sequence of all peptides used.
HEK293T and HeLa cells were cultured in MEM supplemented with 10% fetal bovine serum (FBS) and Du145 cells and mouse embryonic fibroblasts (MEFs) were in DMEM with 10% FBS. Transfection of the plasmids was performed by SuperFect (Qiagen) according to the manufacturer's manual. Apoptosis was induced by pcDNA3-human Bax (Bax-encoding plasmid)-transfection, Staurosporin (STS)-treatment and UVC-irradiation. The amount of the plasmids, the concentration of STS, and the energy of UVC-irradiation are described in the figure legends. Apoptosis in the transfected cells was analyzed as follows: A plasmid encoding enhanced green fluorescent protein (EGFP) (0.5 ug to 10^6 cells) was transfected to all the groups to mark the transfected cells. After the treatment, cells were stained with Hoechst dye and cells with apoptotic nuclei were counted in GFP-expressing cells under the fluorescent microscope as described by Matsuyama, et al., J. Biol. Chem. 273:30995–31001, 1998. Each point in the figures showing percentages of apoptosis represents the mean +/−SE of three experiments. Caspase activities of cells were measured by detecting the cleavage of fluorogenic substrate of Caspase (DEVD-afc) as previously described.
BioPorter-based peptide delivery was performed 4 hours before apoptosis induction.

Caspase = Caspase activity (DEVD-afc cleavage); format: cell-based, human; settings: HeLa cells, 200 nM STS, 200 uM, 24 hours
Procedure: (§1) FIG. 4A: One day following UVC-irradiation or STS-treatment in the absence (UV and STS) or presence of 200 uM negative control (NC) peptide (UV+NC and STS+NC) or V5 peptide (UV+V5 and STS+V5), subcellular fractionation of HeLa cells (10^6 cells) was performed. FoF1 ATP synthase subunit α (F1α) was used to mark the mitochondrial fraction. HM stands for “Heavy Membrane” fraction containing mitochondria. FIG. 4C: cytochrome c release from mitochondria is inhibited by BIP, but not z-VAD-fmk. HeLa cells (10^6 cells) were treated with 200 nM STS in the presence or absence of 200 uM negative control (NC) peptide, V5 peptide, or z-VAD-fmk for 24 hours. Cytochrome c released from mitochondria into cytosol was analyzed by subcellular fractionation followed by Western blot analysis of cytochrome c (cyt c) as well as mitochondrial FoF1-ATP-synthase subunit F1α (F1α) as described in Methods. […] Caspase activity was assessed as described in Methods. […]
HEK293T and HeLa cells were cultured in MEM supplemented with 10% fetal bovine serum (FBS) and Du145 cells and mouse embryonic fibroblasts (MEFs) were in DMEM with 10% FBS. […] Apoptosis in the transfected cells was analyzed as follows: A plasmid encoding enhanced green fluorescent protein (EGFP) (0.5 ug to 10^6 cells) was transfected to all the groups to mark the transfected cells. […]

endogenous Bax = target: T1, endogenous Bax (Mus musculus, UniProt Q07813); experiment: Scatchard analysis of the binding of FITC-V5 and Bax; settings: Bax-immunodepleted cell lysates
T1 construct: endogenous in cells; host or cells: Ku70-deficient mouse embryonic fibroblasts, cytosol fraction
T1 sequence (Q07813 whole entry): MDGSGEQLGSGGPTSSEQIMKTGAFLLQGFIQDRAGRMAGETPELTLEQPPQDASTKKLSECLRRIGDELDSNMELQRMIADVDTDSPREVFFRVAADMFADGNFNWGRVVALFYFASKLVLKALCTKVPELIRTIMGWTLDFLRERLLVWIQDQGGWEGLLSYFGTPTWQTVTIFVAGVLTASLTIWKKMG
Procedure: as §1
Ku70-deficient MEFs (10^7 cells) were lysed in 200 ul of “detergent-free hypotonic buffer” (hypotonic (5 mM NaCl) phosphate buffered saline, pH 7.4) containing protease inhibitors (100 times dilution of Protease Inhibitors Cocktail; Sigma) according to the previously reported method (Hsu and Youle, supra, 1998). […] Kd was calculated by Scatchard plot. […]

Bax = experiment: Co-precipitation of biotin-labeled peptides and endogenous Bax using streptavidin beads; format: binding, human; settings: HEK293T lysates, CHAPS buffer
human Bax [1] = target: T2, human Bax (human, UniProt Q07812 1-192); experiment: streptavidin bead pull-down from HEK293T CHAPS lysates, Western blot of Bax
T2 construct: Protein in cell lysates or cells, not purified; also called endogenous Bax; pcDNA3-Bax (human)
T2 sequence (Q07812 whole entry): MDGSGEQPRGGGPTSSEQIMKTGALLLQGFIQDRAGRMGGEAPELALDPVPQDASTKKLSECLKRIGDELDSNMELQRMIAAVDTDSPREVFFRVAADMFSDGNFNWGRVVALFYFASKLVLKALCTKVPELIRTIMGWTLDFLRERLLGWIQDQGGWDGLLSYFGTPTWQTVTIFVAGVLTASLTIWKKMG
Procedure: Endogenous protein: HEK293T (10^7 cells) were lysed in 200 ul of "CHAPS-based buffer" (150 mM NaCl, 10 mM Hepes, pH 7.4, 1.0% CHAPS) containing protease inhibitors (100 times dilution of Protease Inhibitors Cocktail; Sigma) according to the previously reported method (Hsu and Youle, *J. Biol. Chem.* 273:10777–10783, 1998). After pre-cleaning of 600 ul of the sample with 50 ul of Protein G-Sepharose at 4° C. for 1 hour, immunoprecipitations were performed by incubating 200 ul of lysates with 20 ul of Protein G-Sepharose preabsorbed with 2 ug of anti-Bax polyclonal (BD-Pharmingen) or anti-Ku70 monoclonal antibody (BD-Pharmingen) at 4° C. for 2 hours. In some cases, 2 ug of anti-Bax monoclonal antibody (clone 6A7, BD Pharmingen) was used to detect active form of Bax. After extensive washing in the buffer, beads were boiled in 40 ul of Laemmli buffer and 20 ul of the eluted proteins were subjected to SDS-PAGE. *Co-precipitation of biotin-labeled peptides and endogenous Bax using streptavidin beads*: HEK293T cells (10^7 cells) lysed in 200 ul CHAPS-based buffer were incubated with biotin-labeled negative control (NC) peptide or VPMLK (V5; SEQ ID NO: 1) peptide for 1 hour. The concentrations of NC and V5 peptide labeled with biotin are described in the figure legends. […]

human Bax [2] = target: T2, human Bax; experiment: conclusion drawn from the biotin-peptide streptavidin pull-down
Procedure: The interaction of BIP and Bax was confirmed by experiments using the system of biotin-labeled BIP and streptavidin beads. Biotin-labeled BIP (biotin-VPMLK; SEQ ID NO: 1), but not negative control peptide (biotin-IPMIK; SEQ ID NO: 5) precipitated Bax from the cell lysates when the streptavidin beads were added to the samples.
Endogenous protein: HEK293T (10^7 cells) were lysed in 200 ul of "CHAPS-based buffer" (150 mM NaCl, 10 mM Hepes, pH 7.4, 1.0% CHAPS) containing protease inhibitors (100 times dilution of Protease Inhibitors Cocktail; Sigma) according to the previously reported method (Hsu and Youle, *J. Biol. Chem.* 273:10777–10783, 1998). After pre-cleaning of 600 ul of the sample with 50 ul of Protein G-Sepharose at 4° C. for 1 hour, immunoprecipitations were performed by incubating 200 ul of lysates with 20 ul of Protein G-Sepharose preabsorbed with 2 ug of anti-Bax polyclonal (BD-Pharmingen) or anti-Ku70 monoclonal antibody (BD-Pharmingen) at 4° C. for 2 hours. In some cases, 2 ug of anti-Bax monoclonal antibody (clone 6A7, BD Pharmingen) was used to detect active form of Bax. […]

Bak = target: T3, Bak (human, UniProt Q16611 2-211); experiment: streptavidin bead pull-down from HEK293T CHAPS lysates, Western blot of Bak
T3 sequence (looked up): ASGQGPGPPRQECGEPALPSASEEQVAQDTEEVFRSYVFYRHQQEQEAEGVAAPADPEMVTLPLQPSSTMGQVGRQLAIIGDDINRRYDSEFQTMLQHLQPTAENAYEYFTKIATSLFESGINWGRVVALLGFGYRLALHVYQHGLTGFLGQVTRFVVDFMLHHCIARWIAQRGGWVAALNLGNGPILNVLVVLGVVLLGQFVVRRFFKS

Question: For `COC(=O)C[C@H](NC(=O)[C@H](C)NC(=O)[C@@H](NC(=O)OCc1ccccc1)C(C)C)C(=O)CF` [z-VAD-fmk] (Cbz-Val-Ala-Asp(OMe)-CH2F), which “Suppression of Bax-induced apoptosis in cell culture” value (HEK293T cells) is on record?
Answer: showed anti-apoptotic activities

Question: What about the “Suppression of Caspase activation” value (Caspase) of the same molecule?
Answer: suppresses STS-induced Caspase activation

Question: How did the “Binding of FITC peptide to cellular components” value (endogenous Bax) turn out when `CSCC[C@H](NC(=O)[C@@H]1CCCN1C(=O)[C@@H](NC(=S)Nc1ccc2c(c1)C(=O)OC21c2ccc(O)cc2Oc2cc(O)ccc21)C(C)C)C(=O)N[C@@H](CC(C)C)C(=O)N[C@@H](CCCCN)C(=O)O` [FITC-labeled BIP] ({FITC}-VPMLK-OH; N-terminus and C-terminus assumed) was run?
Answer: No significant binding

Question: Which “Suppression of Bax-induced apoptosis in cell culture” value (HEK293T cells) does the source give for “IPMIK [mutant of V5 with V and L changed to I, used as negative control peptide, reference compound]” here?
Answer: lost its activity to suppress apoptosis; also recorded: did not suppress Bax-mediated cell death

Question: And the “Interaction with Bax (precipitation from cell lysates)” value (Bax)?
Answer: fails to interact with Bax

B1: biotin-IPMIK (SEQ ID NO: 5) negative control peptide (peptide)
peptide: Biotin-IPMIK
notes: also called biotin-labeled negative control (NC) peptide
Question: Does B1 bind (human Bax [1])?
Answer: no binding (tested: 200 uM)

B2: IPMIK (SEQ ID NO: 5) negative control (NC) peptide (peptide)
peptide: IPMIK
notes: also called negative control peptide; mutant peptide IPMIK
Question: Does B2 bind (human Bax [2])?
Answer: no binding

B3: Biotin-labeled BIP (biotin-VPMLK; SEQ ID NO: 1) (peptide)
peptide: Biotin-VPMLK
notes: also called biotin-labeled V5 peptide (BIP)
Question: Does B3 bind (Bak)?
Answer: no binding (tested: 200 uM)
